Reference: ChEMBL document CHEMBL1123787, “Radioiodinated p-iodoclonidine: a high-affinity probe for the alpha 2-adrenergic receptor” (J Med Chem, 1987)

Biological target: T1, Adrenergic receptor alpha-2 (Homo sapiens, UniProt P08913+P18825+P18089)
T1 sequence (P08913 whole entry): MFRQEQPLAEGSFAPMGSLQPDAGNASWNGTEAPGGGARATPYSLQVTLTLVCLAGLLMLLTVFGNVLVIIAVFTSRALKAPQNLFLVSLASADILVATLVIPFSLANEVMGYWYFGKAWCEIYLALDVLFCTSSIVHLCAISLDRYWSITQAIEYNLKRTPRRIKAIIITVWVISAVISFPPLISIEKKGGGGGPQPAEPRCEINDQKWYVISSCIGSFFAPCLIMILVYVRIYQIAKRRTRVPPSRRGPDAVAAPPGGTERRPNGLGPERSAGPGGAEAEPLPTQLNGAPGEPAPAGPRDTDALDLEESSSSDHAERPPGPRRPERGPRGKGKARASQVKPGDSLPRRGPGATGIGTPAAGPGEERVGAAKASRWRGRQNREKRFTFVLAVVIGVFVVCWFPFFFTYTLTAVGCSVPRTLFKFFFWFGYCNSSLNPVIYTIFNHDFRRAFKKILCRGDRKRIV
T1 sequence (P18825 whole entry): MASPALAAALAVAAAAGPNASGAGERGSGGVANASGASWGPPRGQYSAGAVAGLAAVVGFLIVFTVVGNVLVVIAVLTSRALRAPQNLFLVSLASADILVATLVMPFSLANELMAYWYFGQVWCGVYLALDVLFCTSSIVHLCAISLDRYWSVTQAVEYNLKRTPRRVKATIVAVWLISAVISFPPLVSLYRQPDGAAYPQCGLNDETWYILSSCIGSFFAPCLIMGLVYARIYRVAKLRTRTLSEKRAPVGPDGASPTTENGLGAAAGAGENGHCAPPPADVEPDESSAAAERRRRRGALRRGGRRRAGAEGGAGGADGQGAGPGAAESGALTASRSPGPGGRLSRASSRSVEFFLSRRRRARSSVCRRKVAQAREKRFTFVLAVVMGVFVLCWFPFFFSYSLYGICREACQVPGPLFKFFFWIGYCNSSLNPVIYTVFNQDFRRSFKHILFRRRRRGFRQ
T1 sequence (P18089 whole entry): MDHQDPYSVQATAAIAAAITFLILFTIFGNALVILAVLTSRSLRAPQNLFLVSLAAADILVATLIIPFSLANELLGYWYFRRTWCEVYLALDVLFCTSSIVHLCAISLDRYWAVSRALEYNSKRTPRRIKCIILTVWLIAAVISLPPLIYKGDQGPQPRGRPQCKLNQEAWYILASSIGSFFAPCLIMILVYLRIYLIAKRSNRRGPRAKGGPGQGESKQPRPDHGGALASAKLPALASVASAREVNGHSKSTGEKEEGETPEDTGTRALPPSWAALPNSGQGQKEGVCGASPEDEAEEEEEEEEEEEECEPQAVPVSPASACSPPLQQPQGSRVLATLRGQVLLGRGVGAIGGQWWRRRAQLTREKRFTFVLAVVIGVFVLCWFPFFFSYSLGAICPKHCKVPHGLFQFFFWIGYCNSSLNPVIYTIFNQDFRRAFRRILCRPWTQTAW

Clc1cc(N=NN2CCCC2)cc(Cl)c1NC1=NCCN1
IC50: 2 µM

O=[N+]([O-])c1cc(Cl)c(N=C2NCCN2)c(Cl)c1
IC50: 10 µM
